Measurements as given in article PMC11898654, “The Na^+-K^+-ATPase alpha subunit is an entry receptor for white spot syndrome virus” (mBio, 2025).
Structures can show the parent of a compound that is named as a salt.

Assays:
WSSV VP28 protein = WSSV VP28 protein (White spot syndrome virus, UniProt Q9ICB7); type: binding; conditions: SPR, different concentrations of the synthetic peptides
Procedure: SPR experiments were conducted using a Biacore T200 system (GE Healthcare, USA). […] Regeneration of the sensor chip was performed by injecting glycine (pH 3.0) for 30 s at a flow rate of 30 µL/min. The Biacore Insight Evaluation Software application was utilized to analyze the association and dissociation rates using a steady state affinity analysis, and the equilibrium dissociation constant (KD) was determined as the ratio of the dissociation rate to the association rate.

WSSV [1] = test: Endocytic inhibitors injected into shrimp, WSSV entry and replication in hemocytes; type: in vivo, White spot syndrome virus; conditions: shrimp injected with inhibitor before WSSV; for effect on WSSV entry and replication in shrimp hemocytes: qPCR and flow cytometry, entry 4 h, replication 24 h post-infection
Procedure: Given that viruses enter host cells by exploiting various endocytic pathways, such as clathrin-mediated endocytosis, caveolin-mediated endocytosis, and macropinocytosis ([31]), we went on to examine which of these endocytic pathways is used by WSSV to enter hemocytes. […].
Fig. S5 WSSV entry into shrimp hemocytes through multiple endocytic pathways. (A-F) Identification of endocytic pathways triggered by WSSV. Shrimps were injected with either WSSV or PBS (negative control), and hemocytes were harvested 4 hours post-infection. Hemocytes were incubated with endocytic markers TFN-AF555, CTB-AF555, and DTN-AF568, and uptake rates were analyzed by flow cytometry. Panels (A-C) display representative flow cytometry images for the uptake of TFN-AF555, CTB-AF555, and DTN-AF568, respectively. Quantified uptake rates from three independent experiments are shown in panels (D-F). (G-J) Impact of endocytic inhibitors on WSSV entry. Shrimps were injected with the inhibitors CPZ, GEN, or AMR, and hemocytes were collected 2 hours later for cytotoxicity analysis using the CCK8 kit (G). FITC-labeled or unlabeled WSSV particles were subsequently injected, and hemocytes were harvested 4 hours post-infection for flow cytometry (H) and qPCR (J) to assess WSSV entry. Data from three independent flow cytometry assays are presented in panel (I). (K) Effect of endocytic inhibitors on WSSV replication. Shrimps were injected with WSSV particles following inhibitor treatment, and hemocytes were collected 24 hours post-infection for WSSV copy number quantification via qPCR. Statistical significance was determined using a two-tailed Student’s t-test. * P < 0.05, ** P < 0.01, and *** P < 0.001.

WSSV [2] = test: Endocytic inhibitor treatment, WSSV entry in PvATP1A-overexpressing PAC2 cells; type: cell-based, White spot syndrome virus; conditions: 5 µM inhibitor pre-treatment 30 min, WSSV MOI = 0.1 for 1 h, qPCR, compared with cells treated with CPZ
Procedure: Endocytic inhibitors, chlorpromazine hydrochloride (CPZ, Cat. No. HY-B0407A), genistein (GEN, Cat. No. HY-14596), and amiloride hydrochloride (AMR, Cat. No. HY-B0285A), were purchased from MedChemexpress. Zebrafish PAC2 fibroblast cells were transfected with either the PvATP1A expression plasmid (pEGFP-N1-PvATP1A) or the control plasmid pEGFP-N1. Forty-eight hours post-transfection, cells expressing pEGFP-PvATP1A were pre-treated with 5 µM of each endocytic inhibitor (CPZ, GEN, and AMR) or DMSO (as a control) for 30 min. Following pre-treatment, cells were infected with WSSV (MOI = 0.1) for 1 h. The cells were then washed thrice with PBS, and DNA was extracted for quantification of WSSV copy numbers using qPCR. Cytotoxicity of the endocytic inhibitors on PAC2 cells was assessed using the CCK8 kit (Beyotime, China, Cat. No. C0037), following the manufacturer’s instructions.

## MVSKGEELFT [pEGFP]
WSSV VP28 protein
  change in response units (RU) of the VP28-coated chip: no changes in the response units

## O=c1c(-c2ccc(O)cc2)coc2cc(O)cc(O)c12 [GEN, genistein]
WSSV [1]
  ranking among the endocytic inhibitors for virus entry: most potent inhibitors of virus entry
  effect on WSSV entry and replication in shrimp hemocytes: inhibited WSSV entry and replication
WSSV [2]
  WSSV entry, viral copy numbers in PvATP1A-overexpressing cells: significantly decreased viral copy numbers

## N=C(N)NC(=O)c1nc(Cl)c(N)nc1N [AMR, amiloride hydrochloride]
WSSV [1]
  effect on WSSV entry and replication in shrimp hemocytes: inhibited WSSV entry and replication
WSSV [2]
  WSSV entry, viral copy numbers in PvATP1A-overexpressing cells: significantly decreased viral copy numbers

## CN(C)CCCN1c2ccccc2Sc2ccc(Cl)cc21 [CPZ, chlorpromazine hydrochloride]
WSSV [1]
  effect on WSSV entry and replication in shrimp hemocytes: inhibited WSSV entry and replication
